Key:
[1] = target: Acetylcholinesterase (Electrophorus electricus, UniProt O42275); experiment: Inhibition of electric eel AChE using acetylthiocholine iodide as substrate preincubated for 15 mins followed by substrate addition by spectrophotometric method
[2] = target: Acetylcholinesterase (Electrophorus electricus) (UniProt O42275); experiment: Inhibition of electric eel AChE at 0.1 mM using acetylthiocholine iodide as substrate preincubated for 15 mins followed by substrate addition by spectrophotometric method relative to control
[3] = target: Cholinesterase (Equus caballus) (UniProt P81908); experiment: Inhibition of horse serum BChE at 0.1 mM using butyrylcholine chloride as substrate preincubated for 15 mins followed by substrate addition by spectrophotometric method relative to control
[4] = Antioxidant activity assessed as inhibition of DPPH free radical after 30 mins; assay type: functional
[5] = Antioxidant activity assessed as inhibition of DPPH free radical at 50 uM after 30 mins relative to control; assay type: functional
[6] = Antioxidant activity assessed as inhibition of DPPH free radical at 75 uM after 30 mins relative to control; assay type: functional
[7] = Antioxidant activity assessed as inhibition of DPPH free radical at 100 uM after 30 mins relative to control; assay type: functional
[8] = Antioxidant activity assessed as inhibition of DPPH free radical at 125 uM after 30 mins relative to control; assay type: functional
[9] = target: Cholinesterase (Equus caballus, UniProt P81908); experiment: Inhibition of horse serum BChE using butyrylcholine chloride as substrate preincubated for 15 mins followed by substrate addition by spectrophotometric method
Cholinesterase, sequence (P81908 whole entry): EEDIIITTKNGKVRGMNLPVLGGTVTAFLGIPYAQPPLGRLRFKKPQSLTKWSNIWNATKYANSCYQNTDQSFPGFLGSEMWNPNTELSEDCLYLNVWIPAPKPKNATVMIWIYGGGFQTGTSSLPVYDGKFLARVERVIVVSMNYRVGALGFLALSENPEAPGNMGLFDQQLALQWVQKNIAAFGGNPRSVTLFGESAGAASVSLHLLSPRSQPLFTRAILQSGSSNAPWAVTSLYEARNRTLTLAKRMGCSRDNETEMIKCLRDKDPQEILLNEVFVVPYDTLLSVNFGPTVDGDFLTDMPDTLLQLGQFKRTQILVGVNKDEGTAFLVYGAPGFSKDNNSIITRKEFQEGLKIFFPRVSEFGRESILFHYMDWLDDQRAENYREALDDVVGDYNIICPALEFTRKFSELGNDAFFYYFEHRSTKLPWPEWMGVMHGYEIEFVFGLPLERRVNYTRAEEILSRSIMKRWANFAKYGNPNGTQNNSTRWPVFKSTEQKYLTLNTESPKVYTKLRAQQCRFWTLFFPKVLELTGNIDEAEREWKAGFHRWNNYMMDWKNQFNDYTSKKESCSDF

Cholinesterase (Equus caballus), sequence (P81908 whole entry): as above
Acetylcholinesterase (Electrophorus electricus), sequence (O42275 24-633 limits assumed): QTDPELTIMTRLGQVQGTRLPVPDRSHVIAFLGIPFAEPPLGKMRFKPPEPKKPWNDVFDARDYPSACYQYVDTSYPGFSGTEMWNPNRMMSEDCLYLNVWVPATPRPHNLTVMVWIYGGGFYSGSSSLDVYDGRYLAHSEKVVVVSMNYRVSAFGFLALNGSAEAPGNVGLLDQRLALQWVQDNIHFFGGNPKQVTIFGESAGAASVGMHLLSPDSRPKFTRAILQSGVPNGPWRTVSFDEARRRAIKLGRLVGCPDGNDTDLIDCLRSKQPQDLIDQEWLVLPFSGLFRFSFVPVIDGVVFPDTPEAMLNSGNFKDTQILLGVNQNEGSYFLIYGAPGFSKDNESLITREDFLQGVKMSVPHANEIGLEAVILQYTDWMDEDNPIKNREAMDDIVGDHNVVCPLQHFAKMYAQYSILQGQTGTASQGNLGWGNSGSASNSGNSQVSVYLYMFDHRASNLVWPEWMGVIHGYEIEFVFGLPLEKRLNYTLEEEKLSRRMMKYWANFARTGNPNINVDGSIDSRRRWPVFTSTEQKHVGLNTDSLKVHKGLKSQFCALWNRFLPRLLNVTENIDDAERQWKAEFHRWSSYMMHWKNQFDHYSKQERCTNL
Acetylcholinesterase, sequence (O42275 whole entry): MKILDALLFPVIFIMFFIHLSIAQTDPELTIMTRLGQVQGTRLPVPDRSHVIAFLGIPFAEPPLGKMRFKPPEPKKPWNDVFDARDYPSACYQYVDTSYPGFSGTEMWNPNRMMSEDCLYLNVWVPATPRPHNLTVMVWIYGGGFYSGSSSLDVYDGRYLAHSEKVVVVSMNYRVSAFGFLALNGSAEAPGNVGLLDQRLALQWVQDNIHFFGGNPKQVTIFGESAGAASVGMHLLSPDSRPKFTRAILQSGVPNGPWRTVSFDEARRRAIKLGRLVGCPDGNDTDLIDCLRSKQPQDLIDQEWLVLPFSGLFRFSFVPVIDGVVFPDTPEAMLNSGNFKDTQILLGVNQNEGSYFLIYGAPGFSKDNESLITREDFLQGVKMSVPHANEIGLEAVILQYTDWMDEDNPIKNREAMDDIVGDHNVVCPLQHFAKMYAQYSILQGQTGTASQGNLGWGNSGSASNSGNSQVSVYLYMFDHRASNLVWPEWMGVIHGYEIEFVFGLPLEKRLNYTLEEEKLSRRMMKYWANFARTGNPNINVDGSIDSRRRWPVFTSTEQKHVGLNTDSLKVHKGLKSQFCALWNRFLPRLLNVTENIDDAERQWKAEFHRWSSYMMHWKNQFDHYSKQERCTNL

SMILES | IC50 [1] | inhibition [2] | inhibition [3] | inhibition [4] | inhibition [5] | inhibition [6] | inhibition [7] | inhibition [8] | IC50 [9]
C=C1[C@H]2C[C@H]3C4N5C[C@]6(C)CCC[C@@]47[C@@H]6[C@@]5(O)CC3([C@@H]1O)[C@@H]7C2 | 12.8 µM | > 50% | > 50% | Dose-dependent effect | 17% | 25% | 36% | 41.2% | 16.2 µM
O=C1O[C@H]([C@@H](O)CO)C(O)=C1O | – | – | – | – | 75% | 85% | 90% | 96% | –
C=C1[C@H]2CC[C@@]3(CC[C@H]4[C@]5(CCC[C@]4(C)C4OCCN4C5)[C@@H]3C2)[C@@H]1O (stereo partly specified) | 8.4 µM | > 50% | > 50% | Dose-dependent effect | 11.8% | 23.3% | 49.4% | 60% | 13.1 µM
C=C1[C@H]2CC[C@@]3(CC[C@@H]4[C@]5(C)CCC[C@]4(CN4CCO[C@@H]45)[C@@H]3C2)[C@@H]1O | 10.3 µM | > 50% | > 50% | Dose-dependent effect | 12.3% | 30.1% | 42.1% | 55.2% | 14.7 µM
CCN1C[C@]2(C)CC[C@H](OC)[C@]34C1[C@@](C)([C@@H](OC)[C@H]23)[C@@]1(O)CC[C@H]2C[C@@H]4C1(O)C(=O)O2 | 5.4 µM | > 50% | > 50% | Dose-dependent effect | 22.2% | 28.3% | 33.2% | 38.4% | 8.6 µM
C=C1CC23C[C@H]4[C@@H]5[C@@]6(C)CC[C@H](O)[C@]57C([C@@H]2[C@@H](O)[C@H]1[C@@H](O)[C@@H]37)N4C6 | 6.5 µM | > 50% | > 50% | Dose-dependent effect | 22.5% | 27% | 60.3% | 79.6% | 9.3 µM
CCN1C[C@]2(C)CC[C@H](OC)[C@]34C1[C@H]([C@@H](O)[C@H]23)[C@@]1(O)CC[C@H]2C[C@@H]4[C@@H]1C(=O)O2 | 6.5 µM | > 50% | > 50% | Dose-dependent effect | 19.3% | 39.3% | 47.3% | 52.4% | 10.4 µM
C=C1C[C@]23C[C@@H]4[C@@H]5[C@@]6(C)CC(=O)C[C@]57C([C@@H]2[C@@H](O)[C@H]1[C@@H](O)[C@@H]37)N4C6 | 10.1 µM | > 50% | > 50% | Dose-dependent effect | 12.1% | 32% | 40% | 65.5% | 15.6 µM
C=C1[C@H]2CC[C@@]3(C(=O)C[C@@H]4[C@@]5(C)CCC[C@@]4(CN(CCO)C5)[C@@H]3C2)[C@@H]1O | 14.6 µM | > 50% | > 50% | Dose-dependent effect | 20% | 31.2% | 40% | 45% | 18.1 µM
